Experimental data from PubChem BioAssay AID330 (DTP/NCI, 2004).
Where “and” joins values, the source holds several entries; their conditions need not be identical. Equal values may be shown once. Inconclusive results and toxic doses are left out.

Test system: P388 leukemia ip, CD2F1 mice, survival T/C
Test: NCI In Vivo Anticancer Drug Screen. Data for tumor model P388 Leukemia (intraperitoneal) in CD2F1 (CDF1) mice
Details: endpoint: median survival time, higher = longer survival
Summary of the method: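 Mice carrying the transplanted tumor received test compound or vehicle. Survival was recorded in each group, and the value is the treated-group measurement divided by that of the vehicle-treated control group.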

[1] = dose: 60.0 mg/kg/injection, schedule: Q01DX005 (ip), vehicle: saline with Tween-80
[2] = dose: 60.0 mg/kg/injection, schedule: Q01DX005 (ip), vehicle: saline
[3] = dose: 120.0 mg/kg/injection, schedule: Q01DX005 (ip), vehicle: saline with Tween-80
[4] = dose: 240.0 mg/kg/injection, schedule: Q01DX005 (ip), vehicle: saline with Tween-80
[5] = dose: 50.0 mg/kg/injection, schedule: Q01DX009 (ip), vehicle: saline with Tween-80
[6] = dose: 100.0 mg/kg/injection, schedule: Q01DX009 (ip), vehicle: saline with Tween-80
[7] = dose: 25.0 mg/kg/injection, schedule: Q01DX009 (ip), vehicle: saline with Tween-80
[8] = dose: 60.0 mg/kg/injection, schedule: Q01DX005 (ip), vehicle: Klucel (hydroxypropylcellulose) (HPC)
[9] = dose: 120.0 mg/kg/injection, schedule: Q01DX005 (ip), vehicle: Klucel (hydroxypropylcellulose) (HPC)
[10] = dose: 240.0 mg/kg/injection, schedule: Q01DX005 (ip), vehicle: Klucel (hydroxypropylcellulose) (HPC)
[11] = dose: 120.0 mg/kg/injection, schedule: Q01DX005 (ip), vehicle: saline
[12] = dose: 240.0 mg/kg/injection, schedule: Q01DX005 (ip), vehicle: saline
[13] = dose: 100.0 mg/kg/injection, schedule: Q04DX002 (ip), vehicle: Klucel (hydroxypropylcellulose) (HPC)
[14] = dose: 200.0 mg/kg/injection, schedule: Q04DX002 (ip), vehicle: Klucel (hydroxypropylcellulose) (HPC)
[15] = dose: 400.0 mg/kg/injection, schedule: Q04DX002 (ip), vehicle: Klucel (hydroxypropylcellulose) (HPC)

COc1ccc(C(=O)c2c(C(=O)NOCCCc3ccccc3)[nH]c(=O)c(C#N)c2C(=O)NOCCCc2ccccc2)cc1
T/C (dose: 30.0 mg/kg/injection, schedule: Q01DX005 (ip), vehicle: saline with Tween-80): 102 % of control
T/C [1]: 105 % of control
T/C [2]: 109 % of control
T/C [3]: 96 % of control

COc1ccccc1C1c2cc3c(cc2OC(C)(N2CCCC2)C1C)OCO3 (stereo not drawn)
T/C (dose: 100.0 mg/kg/injection, schedule: Q04DX002 (ip), vehicle: saline with Tween-80): 96 % of control
T/C (dose: 200.0 mg/kg/injection, schedule: Q04DX002 (ip), vehicle: saline with Tween-80): 102 % of control
T/C (dose: 400.0 mg/kg/injection, schedule: Q04DX002 (ip), vehicle: saline with Tween-80): 99 % of control

CN1C(=O)OC2OC(C)(c3ccc(S(=O)(=O)c4ccccc4)cc3)C(=O)CC21 (stereo not drawn)
T/C [1]: 100 % of control
T/C [3]: 97 % of control
T/C [4]: 90 % of control

O=[N+]([O-])c1ccccc1OCC(O)CCl (stereo not drawn)
T/C [5]: 102 % of control
T/C [6]: 99 % of control

CC(=O)NC1=C(N2CC2)C(=O)C(NC(C)=O)=C(N2CC2)C1=O
T/C (dose: 125.0 micrograms/kg/injection, schedule: Q01DX010 (ip), vehicle: saline): 115 % of control
T/C (dose: 500.0 micrograms/kg/injection, schedule: Q01DX010 (ip), vehicle: saline): 215 % of control
T/C (dose: 1000.0 micrograms/kg/injection, schedule: Q01DX010 (ip), vehicle: saline): 255 % of control

O=[N+]([O-])c1ccc(NS(=O)(=O)c2cccs2)c([N+](=O)[O-])c1
T/C (dose: 12.5 mg/kg/injection, schedule: Q01DX009 (ip), vehicle: saline with Tween-80): 105 % of control
T/C [7]: 103 % of control
T/C [5]: 108 % of control

C1=NCCCCCCCN=Cc2ccccc2NCCNc2ccccc21
T/C (dose: 100.0 mg/kg/injection, schedule: Q04DX003 (ip), vehicle: saline): 94 % of control
T/C (dose: 200.0 mg/kg/injection, schedule: Q04DX003 (ip), vehicle: saline): 92 % of control
T/C (dose: 400.0 mg/kg/injection, schedule: Q04DX003 (ip), vehicle: saline): 108 % of control

COc1nc(NC2OC(CO)C(O)C2O)cc(=O)n1C (stereo not drawn)
T/C [1]: 93 % of control
T/C [3]: 94 % of control

CC1C(=O)OC(C)(C)C1(C)C (stereo not drawn)
T/C [5]: 101 % of control

CC(C)(C)OC(=O)CS(=O)(=O)Nc1ccccc1O
T/C [8]: 106 % of control
T/C [9]: 86 % of control
T/C [10]: 97 % of control

CC(=NC(C)C)Nc1ccc(Cl)cc1
T/C [7]: 107 % of control
T/C [5]: 105 % of control
T/C [6]: 92 % of control

O=C(CSc1ncnc2nc[nH]c12)c1ccc([N+](=O)[O-])cc1
T/C (dose: 50.0 mg/kg/injection, schedule: Q01DX009 (ip), vehicle: saline): 92 % of control
T/C (dose: 100.0 mg/kg/injection, schedule: Q01DX009 (ip), vehicle: saline): 102 % of control
T/C (dose: 200.0 mg/kg/injection, schedule: Q01DX009 (ip), vehicle: saline): 112 % of control

NS(=O)(=O)c1ccc(N=NC2C(=O)N(c3ccccc3)C(=S)N(c3ccccc3)C2=O)cc1
T/C [8]: 100 % of control
T/C [2]: 106 % of control
T/C [9]: 100 % of control
T/C [11]: 95 % of control
T/C [10]: 91 % of control
T/C [12]: 92 % of control

CC(C)=CCSc1ccccc1
T/C [13]: 104 % of control
T/C [14]: 106 % of control
T/C [15]: 109 % of control

COc1ccc(OC)c(NC(=O)Sc2c(Cl)c(Cl)nc(Cl)c2Cl)c1
T/C (dose: 50.0 mg/kg/injection, schedule: Q01DX009 (ip), vehicle: Klucel (hydroxypropylcellulose) (HPC)): 120 % of control

CCOC(=O)C(CC(=O)O)=C1c2ccccc2-c2ccccc21
T/C [1]: 104 % of control
T/C [3]: 113 % of control
T/C [4]: 107 % of control

[Cl][Pt+2][Cl].[NH-]C(C(=O)O)C([NH-])C(=O)O (stereo not drawn)
T/C (dose: 6.25 mg/kg/injection, schedule: Q04DX002 (ip), vehicle: saline): 96 % of control
T/C (dose: 12.5 mg/kg/injection, schedule: Q04DX002 (ip), vehicle: saline): 96 % of control
T/C (dose: 25.0 mg/kg/injection, schedule: Q04DX002 (ip), vehicle: saline): 100 % of control
T/C (dose: 50.0 mg/kg/injection, schedule: Q04DX002 (ip), vehicle: saline): 117 % of control
T/C (dose: 100.0 mg/kg/injection, schedule: Q04DX002 (ip), vehicle: saline): 101 % of control
T/C (dose: 200.0 mg/kg/injection, schedule: Q04DX002 (ip), vehicle: saline): 97 % of control

CCCCP(=O)(CCCC)CCCC.CCCCP(=O)(CCCC)CCCC.CCCCP(=O)(CCCC)CCCC.CCCCP(=O)(CCCC)CCCC.[Fe+3].[O-][Cl+3]([O-])([O-])O
T/C (dose: 50.0 mg/kg/injection, schedule: Q01DX009 (ip), vehicle: saline + Tween-80 + alcohol): 112 % of control
T/C (dose: 100.0 mg/kg/injection, schedule: Q01DX009 (ip), vehicle: saline + Tween-80 + alcohol): 93 % of control
T/C (dose: 200.0 mg/kg/injection, schedule: Q01DX009 (ip), vehicle: saline + Tween-80 + alcohol): 89 % of control

CCOC(=O)CCC(NC(=O)N(CCCl)CCCl)C(=O)OCC (stereo not drawn)
T/C [5]: 154 % of control
T/C [6]: 168 % of control
T/C (dose: 100.0 mg/kg/injection, schedule: Q04DX003 (ip), vehicle: saline with Tween-80): 113 % of control
T/C (dose: 132.0 mg/kg/injection, schedule: Q04DX003 (ip), vehicle: saline with Tween-80): 168 % of control
T/C (dose: 200.0 mg/kg/injection, schedule: Q01DX009 (ip), vehicle: saline with Tween-80): 181 % of control
T/C (dose: 200.0 mg/kg/injection, schedule: Q04DX003 (ip), vehicle: saline with Tween-80): 150 % of control and 172 % of control
T/C (dose: 300.0 mg/kg/injection, schedule: Q04DX003 (ip), vehicle: saline with Tween-80): 195 % of control

O=C1c2ccccc2C(=O)c2c1ccc(C1C(=O)c3ccccc3C1=O)c2-c1c(C2C(=O)c3ccccc3C2=O)ccc2c1C(=O)c1ccccc1C2=O
T/C [1]: 103 % of control
T/C [3]: 99 % of control
T/C [4]: 97 % of control

ClC(Cl)C1OCCCO1
T/C [2]: 100 % of control
T/C [11]: 99 % of control
T/C [12]: 96 % of control

CN1CC(O)C2=CC(=O)C(=O)C=C21 (stereo not drawn)
T/C (dose: 30.0 mg/kg/injection, schedule: Q01DX005 (ip), vehicle: saline): 117 % of control
T/C [2]: 120 % of control
T/C [11]: 119 % of control

CC(=NCCCCN=C(C)c1cc(C)cc([N+](=O)[O-])c1O)c1cc(C)cc([N+](=O)[O-])c1O.[Co]
T/C (dose: 100.0 mg/kg/injection, schedule: Q05DX002 (ip), vehicle: saline with Tween-80): 92 % of control
T/C (dose: 200.0 mg/kg/injection, schedule: Q05DX002 (ip), vehicle: saline with Tween-80): 98 % of control
T/C (dose: 400.0 mg/kg/injection, schedule: Q05DX002 (ip), vehicle: saline with Tween-80): 92 % of control

COC(=O)C1(CC(=O)c2c(C)[nH]c3ccccc23)NC(=S)NC(=O)C1C#N (stereo not drawn)
T/C [8]: 100 % of control
T/C [9]: 100 % of control
T/C [10]: 100 % of control

Cc1nn(C(N)=S)c(C)c1N=Nc1cccc(Cl)c1Cl
T/C [13]: 100 % of control
T/C [14]: 96 % of control
T/C [15]: 92 % of control

O=S(=O)(c1cccc(C(F)(F)F)c1)N(CCCCCN(S(=O)(=O)c1cccc(C(F)(F)F)c1)S(=O)(=O)c1cccc(C(F)(F)F)c1)S(=O)(=O)c1cccc(C(F)(F)F)c1
T/C [8]: 101 % of control
T/C [9]: 92 % of control
T/C [10]: 88 % of control
